Structures can show the parent of a compound that is named as a salt. Where two headings read alike, the source gives them in different places.

Assay [1] has as its target T1, Aβ1-40 (Homo sapiens, UniProt P05067).
T1 construct: 20 μM of solubilized Aβ40
Nature of the assay: Mass spectroscopy (MS) binding assay. Further details: key: “+++” indicates strong binding; “++” indicates moderate binding; “+” indicates weak binding; “−” indicates no detectable binding. To be noted: 200 μM test compound, 20 μM solubilized Aβ40, 20% ethanol, pH 7.4. The protocol: Test compounds were purchased from commercial sources or synthesized and screened by mass spectroscopy (“MS”) assays. The MS assay gives data on the ability of compounds to bind to an amyloid.
In the mass spectroscopy (“MS”) assay, samples were prepared as aqueous solutions containing 20% ethanol, 200 μM of a test compound and 20 μM of solubilized Aβ40. The pH value of each sample was adjusted to 7.4 (±0.2) by addition of 0.1% aqueous sodium hydroxide. The solutions were then analyzed by electrospray ionization mass spectroscopy using a Waters ZQ 4000 mass spectrometer. Samples were introduced by direct infusion at a flow-rate of […] within 2 hours after sample preparation. The source temperature was kept at 70° C. and the cone voltage was 20 V for all the analysis. Data were processed using Masslynx 3.5 software. The MS assay gives data on the ability of compounds to bind to Aβ, whereas the ThT, EM and CD assays give data on inhibition of fibrillogenesis. “+++” indicates strong binding; “++” indicates moderate binding; “+” indicates weak binding; “−” indicates no detectable binding; and entries left blank were not determined.

Assay [2] has as its system Aβ. The following applies: cited from earlier work.
Assay [3] concerns Aβ. To be noted: PDAPP, cited from earlier work.
The test system of assay [4] is Aβ. The following applies: cited from earlier work. The source holds these as a separate data set.
Target sequence in this assay (P05067 672-711 limits assumed): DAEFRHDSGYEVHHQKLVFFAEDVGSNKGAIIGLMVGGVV
The subject of assay [5] is Aβ. The following applies: TgCRND8, IP; cited from earlier work.
For assay [6], the target named is T2, Aβ (Homo sapiens, UniProt P05067).
T2 construct: the amyloid-β peptide (Aβ), a 39-43 amino acid protein that is produced through cleavage of the β-amyloid precursor protein (APP); host or cells: brains of transgenic mice (PDAPP, Tg2576, Tg2576+PS1, TgCRND8, TgAPPswe)
To be noted: TgAPPswe, IP; cited from earlier work.

T1 sequence (P05067 672-711 limits assumed): as above

`CCCC(CO)NCCCS(=O)(=O)O` (racemic) [CA, 3-[(dl)-1-hydroxy-2-pentyl]amino-1-propanesulfonic acid]: the “MS Binding Aβ1-40” value in assay [1] is on record as “+++”. `O=C(NCC(O)CS(=O)(=O)[O-])OCc1ccccc1.[Na+]` (centres unmarked) [AC, N-benzyloxycarbonyl-3-amino-2-hydroxy-1-propanesulfonic acid sodium salt monohydrate]: in assay [1], the “MS Binding Aβ1-40” value is “+”.

`NCCCCS(=O)(=O)O` [CB, 4-amino-1-butanesulfonic acid]: in assay [1], the “MS Binding Aβ1-40” value is “++”. As to `CC(C)Cc1ccc(C(C)C(=O)NCCCS(=O)(=O)[O-])cc1.[Na+]` (centres unmarked) [AL, 3-{[2-(4-isobutylphenyl)propanoyl]amino}-1-propanesulfonic acid, sodium salt], the “MS Binding Aβ1-40” value in assay [1] is recorded as “++”.

As to `O=S(=O)(O)CCCNC1C2CC3CC(C2)CC1C3` (centres unmarked) [BZ, 3-(2-adamantyl)amino-1-propanesulfonic acid], the “MS Binding Aβ1-40” value in assay [1] is recorded as “+++”. Take `O=C(NCCCS(=O)(=O)O)NC(c1ccccc1)c1ccccc1` [AF, 3-{[(benzhydrylamino)carbonyl]amino}-1-propanesulfanic acid]: the “MS Binding Aβ1-40” value in assay [1] was “+”. Same read-out and setting: the value for `O=S(=O)(O)CCCNCc1ccc(O)c(O)c1` [BC, 3-(3,4-dihydroxybenzylamino)-1-propanesulfonic acid] was “+”; that for `CCNCCCS(=O)(=O)O` [BV, 3-(ethylamino)-1-propanesulfonic acid] was “+++”. On to `O=S(=O)(O)CCCNCc1ccc2c(c1)OCO2` [AW, 3-[((1,3-benzodioxol-5-yl)methyl)amino]-1-propanesulfonic acid], for which the “MS Binding Aβ1-40” value in assay [1] is “++”. For `O=S(=O)([O-])CCCC[n+]1ccc(C2CC=CCC2)cc1` (centres unmarked) [T, 4-(4-cyclohex-3-enylpyridyl) butanesulfonic acid, inner salt], the “MS Binding Aβ1-40” value in assay [1] is on record as “+”. Turning to “K6Aβ1-30: Aβ peptide immunogen of Sigurdsson 2001”, in assay [2] (Tg2576, SC), the “Change in Cerebral Levels: Amyloid Burden” value (“Change … Amyloid Burden” below) is on record as −85% and the “Change in Cerebral Levels: Aβ, total Aβ levels” value (“Change … total Aβ levels” below) is on record as “Total: −55%”. As to `N=C(N)SCCCS(=O)(=O)O` [CP, 3-(amidinothio)-1-propanesulfonic acid], the “MS Binding Aβ1-40” value in assay [1] is listed as “+”. Take `O=S(=O)(O)CCCNCCc1c[nH]c2ccccc12` [BT, 3-{[2-(3-indolyl)ethyl]-amino}-1-propanesulfonic acid]: the “MS Binding Aβ1-40” value in assay [1] was “+++”. Turning to `O=C(NCCCS(=O)(=O)[O-])NCc1ccccc1.[Na+]` [AH, 3-{[(benzylamino)carbonyl]amino}-1-propanesulfonic acid, sodium salt], the “MS Binding Aβ1-40” value in assay [1] is “+”. As for “Aβ40: Aβ40 peptide given orally or nasally as immunogen (Weiner 2000)”, in assay [3] (nasal), the “Change … Amyloid Burden” value is recorded as −60% and the “Change … total Aβ levels” value was “Total: −50%”. Moreover, in assay [3] (oral), the “Change … Amyloid Burden” value is reported as 0% and the “Change … total Aβ levels” value was “Total: 0%”. Consider `O=S(=O)(O)CCCNC12CC3CC(CC(C3)C1)C2` [BW, 3-(1-adamantyl)amino-1-propanesulfonic acid], for which the “MS Binding Aβ1-40” value in assay [1] was “+++”. On the same count and under the same terms, the value for `O=S(=O)(O)CCCNC1CCCc2ccccc21` (centres unmarked) [BU, 3-(1,2,3,4-tetrahydro-1-naphthylamino)-1-propanesulfonic acid] was “+++”. On the same count and under the same terms, as for `COc1cc(CNCCCS(=O)(=O)O)cc(OC)c1` [BA, 3-(3,5-dimethoxybenzylamino)-1-propanesulfonic acid], the entry is “+++”.

As for `O=S(=O)(O)CCCNC1CC2CCC1C2` (centres unmarked) [BY, 3-(2-norbornyl)amino-1-propanesulfonic acid], the “MS Binding Aβ1-40” value in assay [1] is on record as “+++”.

As to `O=C(Cc1ccccc1)NCCCS(=O)(=O)[O-].[Na+]` [AG, 3-[(phenylacetyl)amino]-1-propanesulfonic acid, sodium salt], the “MS Binding Aβ1-40” value in assay [1] is “+”. The same measure, in the same setting: the value for `COc1ccc(CNCCCS(=O)(=O)O)cc1OC` [AX, 3-(3,4-dimethoxybenzylamino)-1-propanesulfonic acid] was “+++”. The same measure, in the same setting: the value for `COc1cccc(CNCCCS(=O)(=O)O)c1OC` [AZ, 3-(2,3-dimethoxybenzylamino)-1-propanesulfonic acid] was “++”; that for `O=S(=O)([O-])CCCNC(=S)NCc1ccccc1.[Na+]` [AM, 3-{[(benzylamino)carbonothioyl]amino}-1-propanesulfonic acid sodium salt] was “+”; that for `CC(C)(C)NCCCS(=O)(=O)O` [BX, 3-(t-butyl)amino-1-propanesulfonic acid] was “+++”. For `COc1cc(CNCCCS(=O)(=O)O)cc(OC)c1OC` [AY, 3-(3,4,5-trimethoxybenzylamino)-1-propanesulfonic acid], the “MS Binding Aβ1-40” value in assay [1] is listed as “++”.

With `NCCNS(=O)(=O)[O-].[Na+]` [BI], the “MS Binding Aβ1-40” value in assay [1] was “+”. The same measure, in the same setting: the value for `O=C(NCCCS(=O)(=O)[O-])OCc1ccccc1.[Na+]` [AE, N-benzyloxycarbonyl-3-amino-1-propanesulfonic acid sodium salt monohydrate] was “+”.

Cholyl-LVFFA-OH: the anti-fibrillogenic activity entry in assay [4] is on record as “can act as an anti-fibrillogenic agent”. `C[n+]1cccc(C(=O)NCCCS(=O)(=O)[O-])c1` [AN, 3-((N-methylnicotlnoyl)amino)-1-propanesulfonic acid, inner salt]: in assay [1], the “MS Binding Aβ1-40” value is recorded as “−”. Consider `O=S(=O)(O)CCCN1CC=C(CCCc2ccccc2)CC1` [D, 4-(3-phenylpropyl)-1-sulfopropyl-2,3,6-tetrahydropyridine], for which the “MS Binding Aβ1-40” value in assay [1] was “+”. “fAβ42: fibrillar Aβ42 used for active immunization”: the “Change … Amyloid Burden” value is on record as −50% in assay [5]; −95% in assay [3] (IP); −85% in assay [2] (Tg2576, IP); −80% in assay [2] (Tg2576, SC). In addition, in assay [6], the “Change in Cerebral Levels: Aβ, levels of Aβ40” value is reported as 40: +100%;. In assay [6], the “Change in Cerebral Levels: Aβ, levels of Aβ42” value is 42: 0%. Further, the “Change … total Aβ levels” value in assay [3] (IP) is reported as “Total: −80%”. For the same compound, in assay [2] (Tg2576, IP, Aβ species not specified), the “Change in Cerebral Levels: Aβ” value is −70%. On to `O=C(NCCCCS(=O)(=O)[O-])OCc1ccccc1.[Na+]` [AD, N-benzyloxycarbonyl-4-amino-1-butanesulfonic acid sodium salt monohydrate], for which the “MS Binding Aβ1-40” value in assay [1] is listed as “+”.

As for `COc1ccc(CNCCCS(=O)(=O)O)c(OC)c1` [BB, 3-(2,4-dimethoxybenzylamino)-1-propanesulfonic acid], the “MS Binding Aβ1-40” value in assay [1] was “+++”.

The record behind these values is patent US20060135403A1, “Therapeutic formulations for the treatment of beta-amyloid related diseases” (priority 2002, published 2006).
